Assay results reported in US10473645B2, “Methods for identifying a receptor for a ligand and uses thereof” (UNIVERSITE DE GENEVE, priority 2014, dated 2019).

Target: T1, olfr145 (Mus musculus, UniProt Q60882)
T1 construct: from tissue; host or cells: main olfactory epithelium of living mice
Assay: OR transcript downregulation by RNAseq after in vivo exposure
Details: 5% odorant, 5 hours
Protocol: Animals were exposed to 5% acetophenone for 5 hours before RNA extraction (as previously described). cDNA libraries were generated with the Truseq RNA and DNA sample preparation kits after selection of polyA-containing mRNAs. Adapters for RNAseq multiplexing were added to the cDNAs. The cDNA libraries were sequenced with a HiSeq®2500 Sequencing system. 100 bp reads were mapped using Bowtie2 with a 28 bp seed. The differential gene expression analyses were performed with DESeq2. Because of the high sequence similarity between OR gene paralogs, some reads are mapped to multiple OR genes. These reads were removed from the analysis.
Mice (n=6) were exposed to 5% acetophenone or to a “neutral” control condition for 5 hours. An olfactory cDNA library corresponding to each animal was deep sequenced and the ratios of odorant receptor mRNA concentrations relative to controls were plotted (FIG. 3). […] Based on transcriptional downregulation levels observed by RNAseq following acetophenone exposure, a list of 26 candidate responsive ORs was determined (FIG. 3), that reached 74% decrease (Olfr145) or even over 80% (Olfr169) relative to controls. […] The transcript downregulation of 21 out of the 26 olfactory receptor candidates obtained by RNAseq was confirmed by qPCR.

T1 sequence (Q60882 whole entry): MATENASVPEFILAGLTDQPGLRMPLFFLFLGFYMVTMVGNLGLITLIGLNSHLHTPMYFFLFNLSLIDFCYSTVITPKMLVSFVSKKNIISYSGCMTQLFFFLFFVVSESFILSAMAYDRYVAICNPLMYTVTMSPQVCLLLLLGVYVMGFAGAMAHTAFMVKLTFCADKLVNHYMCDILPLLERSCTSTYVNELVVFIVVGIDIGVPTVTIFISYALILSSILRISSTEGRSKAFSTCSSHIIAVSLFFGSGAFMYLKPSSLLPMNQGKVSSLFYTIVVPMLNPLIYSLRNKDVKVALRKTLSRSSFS

CC(=O)c1ccccc1 [acetophenone]
Olfr145 transcript decrease relative to controls (RNAseq): 74%
